Converted amounts (≈) assume the structure as drawn.
Columns and labels:
[1] = Tested for activity against A/WSN/33 influenza strain-induced toxicity in MDBK cells by using cell protection assay; assay type: functional, organism-based
[2] = The cytotoxic activity was evaluated in MDBK cells; assay type: functional; conditions: Bos taurus
[3] = Tested for activity against A/WSN/33 influenza strain-induced toxicity in MDBK cells by using cell protection assay; Not active; assay type: functional, organism-based
[4] = The compound was tested for activity against A/WSN/33 influenza strain-induced toxicity in MDBK cells by using cell protection assay; Not active at 50 ug/mL; assay type: functional, cell-based, Bos taurus

Structure (SMILES)	EC50 [1] [µg/mL]	CC50 [2] [µg/mL]	EC50 [3]	EC50 [4]
C[C@@H]1CCC[C@@H]2C[C@@H](NC(=O)c3cc(Cl)ccc3O)CCN21	0.8 (≈ 2.48 µM)	> 200		
Cc1ccc(O)c(C(=O)NCCCN2C(C(C)C)CC[C@@H]3CCCC[C@@H]32)c1 (some centres undefined)	0.25 (≈ 0.671 µM)	80 (≈ 215 µM)		
CN1C2CCC1CC(NC(=O)c1cc(Cl)ccc1O)C2 (centres undefined)		100 (≈ 339 µM)	Not Active	
Cc1ccc(O)c(C(=O)NCCCN2[C@H](C)CCC[C@@H]2C)c1	1.8 (≈ 5.91 µM)	> 100		
Cc1ccc(O)c(C(=O)NCCCN2[C@@H](C)CC[C@@H]3CCCC[C@@H]32)c1	6 (≈ 17.4 µM)	> 100		
C[C@@H]1CCC[C@H](C)N1CCCCNC(=O)c1cc(Cl)ccc1O	1 (≈ 2.95 µM)	100 (≈ 295 µM)		
Cc1ccc(O)c(C(=O)NCCCN2CCC(C)[C@@H]3CCCC[C@@H]32)c1 (some centres undefined)		100 (≈ 290 µM)	Not Active	
Cc1ccc(O)c(C(=O)NCCCCN2[C@H](C)CCC[C@@H]2C)c1	0.7 (≈ 2.2 µM)	> 100		
O=C(NCCCN1CCC[C@@H]2CCCC[C@H]21)c1cc(Cl)ccc1O	1.4 (≈ 3.99 µM)	45 (≈ 128 µM)		
Cc1ccc(O)c(C(=O)NC2CC3CCC(C2)N3C)c1 (centres undefined)		100 (≈ 364 µM)	Not Active	
Cc1ccc(O)c(C(=O)NCCCN2CC(C)C[C@@H]3CCCC[C@@H]32)c1 (some centres undefined)		9.5 (≈ 27.6 µM)	Not Active	
C[C@@H]1CCC[C@H](C)N1CCCNC(=O)c1cc(Cl)ccc1O	4.5 (≈ 13.9 µM)	30 (≈ 92.3 µM)		
CCC(C)N1CCC(NC(=O)c2cc(C)ccc2O)CC1 (centres undefined)		100 (≈ 344 µM)		Not Active
Cc1ccc(O)c(C(=O)NCCCN(C(C)C)C(C)C)c1	0.9 (≈ 3.08 µM)	> 100		
O=C(NCCCN1CCC[C@@H]2CCCC[C@@H]21)c1cc(Cl)ccc1O	1.4 (≈ 3.99 µM)	43 (≈ 123 µM)		
Cc1ccc(O)c(C(=O)NCCCCN2C(C)CC[C@@H]3CCCC[C@@H]32)c1 (some centres undefined)		90 (≈ 251 µM)	Not Active	
Cc1ccc(O)c(C(=O)NCCCN2C(C)CC[C@@H]3CCCC[C@H]32)c1 (single isomer, unassigned)	1.5 (≈ 4.35 µM)	30 (≈ 87.1 µM)		
Cc1ccc(O)c(C(=O)NCCCCN2CCC[C@@H]3CCCC[C@@H]32)c1		30 (≈ 87.1 µM)	Not Active	
CC1CC[C@@H]2CCCC[C@@H]2N1CCCNC(=O)c1cc(Cl)ccc1O (some centres undefined)	0.09 (≈ 0.247 µM)	40 (≈ 110 µM)		
Cc1ccc(O)c(C(=O)NCCCN2CCC[C@@H]3CCCC[C@H]32)c1	0.35 (≈ 1.06 µM)	60 (≈ 182 µM)		
Cc1ccc(O)c(C(=O)NCCCN2[C@H](C)CC[C@@H]3CCCC[C@@H]32)c1	0.19 (≈ 0.552 µM)	35 (≈ 102 µM)		
Cc1ccc(O)c(C(=O)NCCCN2CCC[C@@H]3CCCC[C@@H]32)c1	0.65 (≈ 1.97 µM)	> 100		
